In article PMC4779111, “A Human Renal Proximal Tubule Cell Line with Stable Organic Anion Transporter 1 and 3 Expression Predictive for Antiviral-Induced Toxicity” (The AAPS Journal, 2016):
Where a name gives a salt, the structure may show the parent alone. Read-outs that look alike come from different tables or passages of the source.

B1: OAT3 (Homo sapiens) (protein)
chain: MTFSEILDRVGSMGHFQFLHVAILGLPILNMANHNLLQIFTAATPVHHCRPPHNASTGPWVLPMGPNGKPERCLRFVHPPNASLPNDTQRAMEPCLDGWVYNSTKDSIVTEWDLVCNSNKLKEMAQSIFMAGILIGGLVLGDLSDRFGRRPILTCSYLLLAASGSGAAFSPTFPIYMVFRFLCGFGISGITLSTVILNVEWVPTRMRAIMSTALGYCYTFGQFILPGLAYAIPQWRWLQLTVSIPFFVFFLSSWWTPESIRWLVLSGKSSKALKILRRVAVFNGKKEEGERLSLEELKLNLQKEISLAKAKYTASDLFRIPMLRRMTFCLSLAWFATGFAYYSLAMGVEEFGVNLYILQIIFGGVDVPAKFITILSLSYLGRHTTQAAALLLAGGAILALTFVPLDLQTVRTVLAVFGKGCLSSSFSCLFLYTSELYPTVIRQTGMGVSNLWTRVGSMVSPLVKITGEVQPFIPNIIYGITALLGGSAALFLPETLNQPLPETIEDLENWSLRAKKPKQEPEVEKASQRIPLQPHGPGLGSS
B2: OAT1 (Homo sapiens) (protein)
chain: MAFNDLLQQVGGVGRFQQIQVTLVVLPLLLMASHNTLQNFTAAIPTHHCRPPADANLSKNGGLEVWLPRDRQGQPESCLRFTSPQWGLPFLNGTEANGTGATEPCTDGWIYDNSTFPSTIVTEWDLVCSHRALRQLAQSLYMVGVLLGAMVFGYLADRLGRRKVLILNYLQTAVSGTCAAFAPNFPIYCAFRLLSGMALAGISLNCMTLNVEWMPIHTRACVGTLIGYVYSLGQFLLAGVAYAVPHWRHLQLLVSAPFFAFFIYSWFFIESARWHSSSGRLDLTLRALQRVARINGKREEGAKLSMEVLRASLQKELTMGKGQASAMELLRCPTLRHLFLCLSMLWFATSFAYYGLVMDLQGFGVSIYLIQVIFGAVDLPAKLVGFLVINSLGRRPAQMAALLLAGICILLNGVIPQDQSIVRTSLAVLGKGCLAASFNCIFLYTGELYPTMIRQTGMGMGSTMARVGSIVSPLVSMTAELYPSMPLFIYGAVPVAASAVTVLLPETLGQPLPDTVQDLESRWAPTQKEAGIYPRKGKQTRQQQEHQKYMVPLQASAQEKNGL

Tests used:
[1] = MTT viability assay, ciPTEC-OAT1; assay type: cell-based, human; details: human, ciPTEC-OAT1 cells (monolayers, 96-well); for IC50 at 24 h: read-out: IC50 on cell viability (MTT), 24 h; for IC50 at 72 h: read-out: IC50 on cell viability (MTT), 72 h
ciPTEC-OAT1 = assay: MTT viability assay, ciPTEC-OAT1; assay type: cell-based, human; details: for Cell viability (MTT): ciPTEC-OAT1, 1 mM, 48 h, serum-free medium; for Cell viability (MTT), concentration and time dependence: ciPTEC-OAT1, 24, 48 and 72 h
ciPTEC-OAT3 = assay: MTT viability assay, ciPTEC-OAT3; assay type: cell-based, human; details: for Cell viability (MTT), concentration and time dependence: ciPTEC-OAT3, 24, 48 and 72 h
Method: Cell toxicity was analyzed further in presence of MRP and BCRP efflux inhibitors MK571 (5 μM) and KO143 (10 μM).

OAT1 [2] = target: T1, OAT1 (Homo sapiens, UniProt Q4U2R8); set-up: method as in PMID 23856525; details: substrate PAH, HeLa-OAT1; read-out: IC50 (literature); cited from earlier work
T1 sequence (Q4U2R8 1-563): B2 chain

[3] = plasma, maximal free plasma concentration, 47 (zidovudine), cited from earlier work
hOAT1-CHO and HEK-OAT1 = details: cited from earlier work
[4] = set-up: method as in PMID 19445515; details: cited from earlier work
OAT1 [5] = target: T1, OAT1; assay: Inhibition of OAT-mediated fluorescein uptake in ciPTEC-OAT1; assay type: cell-based; set-up: host or cells: ciPTEC (human conditionally immortalized proximal tubule epithelial cells), lentiviral transduction; details: for Effect on OAT-mediated fluorescein uptake (in words): ciPTEC-OAT1, fluorescein 1 μM, 10 min; for DDI index Cmax/IC50: ciPTEC-OAT1, with the second-listed (higher) Cmax
Method: (§1) All chemicals were obtained from Sigma, unless stated otherwise. Uptake was stopped by washing three times with ice-cold HBSS (4°C).
(§2) Non-linear regression with variable slope constraining the top to 100% was used to fit the data after background subtraction with GraphPad Prism. Statistics was performed by two-way ANOVA (two-tailed, α = 0.05) using GraphPad Prism as well. All data is presented as mean ± SEM of at least three separate experiments (n = 3) performed in triplicate, unless stated otherwise.

OAT3 [6] = target: T2, OAT3 (Homo sapiens, UniProt Q8TCC7); assay: Inhibition of OAT-mediated fluorescein uptake in ciPTEC-OAT3
T2 sequence (Q8TCC7 1-542): B1 chain
Method: as §1, §2

OAT3 [7] = target: T2, OAT3; details: substrate estrone sulfate, Xenopus-OAT3; read-out: IC50 (literature); cited from earlier work
OAT1 [8] = target: T1, OAT1; assay: OAT1-mediated fluorescein uptake kinetics in ciPTEC-OAT1; assay type: cell-based; set-up: host or cells: ciPTEC (human conditionally immortalized proximal tubule epithelial cells), lentiviral transduction
Method: as §1

OAT3 [9] = target: T2, OAT3; assay: OAT3-mediated fluorescein uptake kinetics in ciPTEC-OAT3; assay type: cell-based; set-up: host or cells: ciPTEC (human conditionally immortalized proximal tubule epithelial cells), lentiviral transduction; details: n = 4
Method: as §1

[10] = substrate: O=C1OC2(c3ccc(O)cc3Oc3cc(O)ccc32)c2ccccc21; assay: cells, lysate or membranes; details: other: fluorescein uptake, 10 min, Michaelis-Menten with linear diffusion, mean ± SEM, n = 4; 37.0 °C
[11] = first-listed (lower) value per drug, ref 40 (adefovir), 42 (cidofovir), 45 (tenofovir)
[12] = second-listed (higher) value per drug, ref 41 (adefovir), 43 (cidofovir), 46 (tenofovir)
[13] = 120 h, OAT1 overexpression cells, read-out: IC50 on cell viability (literature), 120 h
[14] = read-out: IC50 on cell viability (literature), 48 h, OAT1 overexpression cells

Row | Molecule | IC50 at 48 h [1] | IC50 at 24 h [1] | IC50 at 72 h [1] | Cell viability (MTT) (ciPTEC-OAT1) | Cell viability (MTT), concentration and time dependence (ciPTEC-OAT1) | Cell viability (MTT), concentration and time dependence (ciPTEC-OAT3) | Cmax [3, 11] | Cmax [3, 12] | IC50 (hOAT1-CHO and HEK-OAT1; [13]) | IC50 (hOAT1-CHO and HEK-OAT1; [14]) | Renal excretion of unchanged drug (in words) [4] | IC50 (OAT1 [5]) | Effect on OAT-mediated fluorescein uptake (in words) (OAT1 [5]) | also measured
1 | Nc1ncnc2c1ncn2CCOCP(=O)(O)O [Adefovir, adefovir] | 303 ± 38 µM | 462 ± 52 µM | 230 ± 37 µM | significantly affected cell viability | concentration- and time-dependent decrease in viability | less pronounced | 1.6 µM | 38.8 µM | 1.4 ± 0.7 µM | 0.22 ± 0.08 µM | largely excreted unchanged by the kidneys | 23 ± 4 µM | Concentration-dependent inhibition | IC50 (OAT1 [2]): 8.1 µM; DDI index Cmax/IC50 (OAT1 [5]): 4.2
2 | Nc1ccn(C[C@@H](CO)OCP(=O)(O)O)c(=O)n1 [Cidofovir, cidofovir] | 130 ± 58 µM | 613 ± 384 µM | 69 ± 2 µM | significantly affected cell viability | concentration- and time-dependent decrease in viability | less pronounced | 15.8 µM | 26.3 µM | 3 ± 1 µM | 0.5 ± 0.2 µM | largely excreted unchanged by the kidneys | 71 ± 34 µM | Concentration-dependent inhibition | –
3 | C[C@]12CC[C@@H]3c4ccc(OS(=O)(=O)O)cc4CC[C@H]3[C@@H]1CCC2=O [Estrone sulfate, estrone sulfate] | – | – | – | – | – | – | – | – | – | – | – | – | – | IC50 (OAT3 [6]; read-out: IC50 of fluorescein uptake, ciPTEC-OAT3, fluorescein 1 μM, 10 min, HBSS 37°C, mean ± SEM, n = 4, cimetidine: apparent IC50 due to partial inhibition): 2.1 ± 0.3 µM; IC50 (OAT3 [7]): 3 µM
4 | O=C1OC2(c3ccc(O)cc3Oc3cc(O)ccc32)c2ccccc21 [Fluorescein, fluorescein] | – | – | – | – | – | – | – | – | – | – | – | – | – | Vmax (OAT1 [8]; fluorescein uptake, 10 min, n = 4): 695 ± 84 RFU; Fluorescein affinity for OAT1 relative to OAT3 (OAT1 [8]; from Km values of Table I): approximately fivefold higher; Kd (OAT1 [8]; passive diffusion component kd of fluorescein uptake, n = 4): 2.4 ± 1.2 RFU*L/μmol; Vmax (OAT3 [9]; fluorescein uptake, 10 min): 384 ± 103 RFU; Kd (OAT3 [9]; passive diffusion component kd of fluorescein uptake): 4.3 ± 0.9 RFU*L/μmol
5 | Nc1ccc(C(=O)NCC(=O)O)cc1 [Para-aminohippuric acid, para-aminohippuric acid] | – | – | – | – | – | – | – | – | – | – | – | – | – | IC50 (OAT3 [6]): 152 ± 3 µM; Fluorescein uptake by flow cytometry in presence of inhibitor (OAT3 [6]; transduced ciPTEC-OAT3, fluorescein 1 μM, 10 min, inhibitor 100 μM): sensitive to para-aminohippuric acid-induce inhibition
6 | C[C@H](Cn1cnc2c(N)ncnc21)OCP(=O)(O)O [Tenofovir, tenofovir] | 189 ± 48 µM | 114 ± 25 µM | 223 ± 67 µM | significantly affected cell viability | concentration- and time-dependent decrease in viability | less pronounced | 0.52 µM | 0.72 µM | 21 ± 7 µM | 10 ± 2 µM | largely excreted unchanged by the kidneys | 42 ± 8 µM | Concentration-dependent inhibition | Cell viability (MTT) (ciPTEC-OAT3; ciPTEC-OAT3, 1 mM, 48 h, serum-free medium): slightly decreased; IC50 (OAT1 [2]): 29.3 µM; DDI index Cmax/IC50 (OAT1 [5]): 0.019
7 | B1 | – | – | – | – | – | – | – | – | – | – | – | – | – | Km [10]: 3.7 ± 0.5 µM
8 | B2 | – | – | – | – | – | – | – | – | – | – | – | – | – | Km [10]: 0.8 ± 0.1 µM
